Experimental findings from ChEMBL document CHEMBL1667756, “Design, synthesis and antibacterial activity of 3-methylenepyrrolidine formyl hydroxyamino derivatives as novel peptide deformylase inhibitors” (2011) are described below.

≈ marks a conversion by molar mass, not a printed value. Where only a bound is given, the exact number is not on record here.

Format in all cases: functional
Test [1] concerns Staphylococcus aureus. Kind of test: Antibacterial activity against Staphylococcus aureus OXFORD by broth micro dilution technique.
Test [2] has as its system Staphylococcus aureus. The test is described as follows: Antibacterial activity against Staphylococcus aureus WCUH29 by broth micro dilution technique.
Test [3] has as its system Enterococcus faecalis. Kind of test: Antibacterial activity against Enterococcus faecalis by broth micro dilution technique.
The subject of test [4] is Enterococcus faecium. Kind of test: Antibacterial activity against Enterococcus faecium X7501 by broth micro dilution technique.
Test [5] concerns Haemophilus influenzae. The test is described as follows: Antibacterial activity against Haemophilus influenzae Q1 by broth micro dilution technique.
The subject of test [6] is Haemophilus influenzae. The test is described as follows: Antibacterial activity against Haemophilus influenzae H128 by broth micro dilution technique.
The test system of test [7] is Haemophilus influenzae. Kind of test: Antibacterial activity against AcrA deficient Haemophilus influenzae H128 by broth micro dilution technique.
Test [8] has as its system Moraxella catarrhalis. The test is described as follows: Antibacterial activity against Moraxella catarrhalis 1502 by broth micro dilution technique.
Test [9] concerns Streptococcus pneumoniae. Kind of test: Antibacterial activity against Streptococcus pneumoniae 1629 by broth micro dilution technique.
Test [10] has as its system Streptococcus pneumoniae. Kind of test: Antibacterial activity against Streptococcus pneumoniae N1387 by broth micro dilution technique.
Test [11] has as its system Streptococcus pneumoniae. Kind of test: Antibacterial activity against Streptococcus pneumoniae ERY2 by broth micro dilution technique.
The subject of test [12] is Escherichia coli. Kind of test: Antibacterial activity against Escherichia coli by broth micro dilution technique.
Test [13] deals with Streptococcus pyogenes. The test is described as follows: Antibacterial activity against Streptococcus pyogenes 1307006P by broth micro dilution technique.
For test [14], the system named is Streptococcus pyogenes. The test is described as follows: Antibacterial activity against Streptococcus pyogenes 1308007P by broth micro dilution technique.
In test [15] the test system is Staphylococcus epidermidis. Kind of test: Antibacterial activity against methicillin-resistant Staphylococcus epidermidis ATCC 12228 by broth micro dilution technique.
The subject of test [16] is Staphylococcus aureus. The test is described as follows: Antibacterial activity against methicillin-susceptible Staphylococcus aureus by agar dilution method.
Test [17] has as its system Staphylococcus aureus. The test is described as follows: Antibacterial activity against methicillin-resistant Staphylococcus aureus by agar dilution method.
The test system of test [18] is Staphylococcus epidermidis. Kind of test: Antibacterial activity against methicillin-susceptible Staphylococcus epidermidis by agar dilution method.
Test [19] has as its system Staphylococcus epidermidis. The test is described as follows: Antibacterial activity against methicillin-resistant Staphylococcus epidermidis by agar dilution method.
The test system of test [20] is Staphylococcus aureus. The test is described as follows: Antibacterial activity against Staphylococcus aureus ATCC 25923 by broth micro dilution technique.
In test [21] the test system is Staphylococcus aureus. Kind of test: Antibacterial activity against methicillin-susceptible Staphylococcus aureus ATCC 29213 by broth micro dilution technique.
Test [22] deals with Staphylococcus aureus. Kind of test: Antibacterial activity against methicillin-resistant Staphylococcus aureus ATCC 43300 by broth micro dilution technique.
Test [23] relates to Streptococcus pneumoniae. The test is described as follows: Antibacterial activity against penicillin-susceptible Streptococcus pneumoniae by agar dilution method.
Test [24] has as its system Streptococcus pneumoniae. The test is described as follows: Antibacterial activity against penicillin-resistant Streptococcus pneumoniae by agar dilution method.
Test [25] deals with Haemophilus influenzae. The test is described as follows: Antibacterial activity against Haemophilus influenzae by agar dilution method.

`CC1(C)S[C@@H]2[C@H](NC(=O)[C@H](N)c3ccc(O)cc3)C(=O)N2[C@H]1C(=O)O` [AMOXICILLIN]: the MIC in [1] was 0.125 µg/mL (≈ 0.342 µM); in test [2], 64 µg/mL (≈ 175 µM); in test [3], 0.5 µg/mL (≈ 1.37 µM); in test [4], 16 µg/mL (≈ 43.8 µM); in [5], 0.25 µg/mL (≈ 0.684 µM); in test [6], 32 µg/mL (≈ 87.6 µM). Further, the MIC was 64 µg/mL (≈ 175 µM) in test [7]; at most 0.06 µg/mL in test [8]; at most 0.06 µg/mL in test [9]; 2 µg/mL (≈ 5.47 µM) in [10]; at most 0.06 µg/mL in test [11]; 1 µg/mL (≈ 2.74 µM) in [12]. The MIC in test [13] and in test [14] was at most 0.06 µg/mL in each case.
For the molecule `CC(=O)NC[C@H]1CN(c2ccc(N3CCOCC3)c(F)c2)C(=O)O1` [LINEZOLID], the MIC in test [15] was determined as 0.5 µg/mL (≈ 1.48 µM); in test [16], 1 µg/mL (≈ 2.96 µM); in test [17], 0.5 µg/mL (≈ 1.48 µM); in test [18] it was 1 µg/mL (≈ 2.96 µM); in [19] it was 1 µg/mL (≈ 2.96 µM).
With `C=C1C[C@@H](C(=O)Nc2ccc(F)cc2)N(C(=O)[C@H](CC2CCCC2)CN(O)C=O)C1`, the MIC in test [20] is 1 µg/mL (≈ 2.4 µM); in test [21] it was 2 µg/mL (≈ 4.79 µM); in [22], 0.5 µg/mL (≈ 1.2 µM); in test [15] it was 1 µg/mL (≈ 2.4 µM); in test [16] it was 1 µg/mL (≈ 2.4 µM); in [17], 0.25 µg/mL (≈ 0.599 µM). Besides, the MIC came out at 0.5 µg/mL (≈ 1.2 µM) in test [18]; 0.25 µg/mL (≈ 0.599 µM) in test [19]; 0.25 µg/mL (≈ 0.599 µM) in [23]; 0.25 µg/mL (≈ 0.599 µM) in test [24]; 4 µg/mL (≈ 9.58 µM) in test [25].
Consider `C=C1C[C@@H](C(=O)Nc2ncc(C)s2)N(C(=O)[C@H](CC2CCCC2)CN(O)C=O)C1`, for which the MIC in [20] was determined as 0.0625 µg/mL (≈ 0.149 µM); in [21] it was 0.5 µg/mL (≈ 1.19 µM); in [22] it was 0.0625 µg/mL (≈ 0.149 µM); in test [15], 0.125 µg/mL (≈ 0.297 µM); in test [16], 1 µg/mL (≈ 2.38 µM); in test [17] it was 0.0625 µg/mL (≈ 0.149 µM). For the same molecule, the MIC turned out to be 1 µg/mL (≈ 2.38 µM) in test [18]; 0.5 µg/mL (≈ 1.19 µM) in test [19]; 0.25 µg/mL (≈ 0.594 µM) in test [23]; 0.25 µg/mL (≈ 0.594 µM) in [24]; 1 µg/mL (≈ 2.38 µM) in test [25].
For `C=C1C[C@@H](C(=O)Nc2ccc(F)c[n+]2[O-])N(C(=O)[C@H](CC2CCCC2)CN(O)C=O)C1`, the MIC in test [20] was determined as 0.125 µg/mL (≈ 0.288 µM); in test [21], 2 µg/mL (≈ 4.6 µM); in test [22], 0.125 µg/mL (≈ 0.288 µM); in test [15], 0.5 µg/mL (≈ 1.15 µM); in [16] it was 0.5 µg/mL (≈ 1.15 µM); in test [17], 0.125 µg/mL (≈ 0.288 µM). The MIC turned out to be 0.125 µg/mL (≈ 0.288 µM) in [18]; 0.25 µg/mL (≈ 0.575 µM) in test [19]; 0.25 µg/mL (≈ 0.575 µM) in test [23]; 0.0625 µg/mL (≈ 0.144 µM) in test [24]; 2 µg/mL (≈ 4.6 µM) in test [25].
`C=C1C[C@@H](C(=O)Nc2ccc(F)c[n+]2[O-])N(C(=O)[C@H](CCCC)CN(O)C=O)C1`: the MIC in test [20] was 2 µg/mL (≈ 4.9 µM); in test [21] it was 4 µg/mL (≈ 9.79 µM); in test [22], 1 µg/mL (≈ 2.45 µM); in test [15] it was 2 µg/mL (≈ 4.9 µM).
Take `O=C(O)c1cn(C2CC2)c2cc(N3CCNCC3)c(F)cc2c1=O` [CIPROFLOXACIN]: the MIC in test [20] is 0.5 µg/mL (≈ 1.51 µM); in test [21] it was 0.5 µg/mL (≈ 1.51 µM); in [22] it was 1 µg/mL (≈ 3.02 µM); in test [15], 0.25 µg/mL (≈ 0.754 µM); in [16] it was 1 µg/mL (≈ 3.02 µM); in [17], 1 µg/mL (≈ 3.02 µM). The MIC in test [18] came out at 0.25 µg/mL (≈ 0.754 µM); in test [19] it was 1 µg/mL (≈ 3.02 µM); in [23], 2 µg/mL (≈ 6.04 µM); in test [25], 0.125 µg/mL (≈ 0.377 µM).
For the molecule `C=C1C[C@@H](C(=O)N2CCOCC2)N(C(=O)[C@H](CCCC)CN(O)C=O)C1`, the MIC in [20] was 8 µg/mL (≈ 21.8 µM); in test [21] it was over 64 µg/mL; in test [22] it was 8 µg/mL (≈ 21.8 µM); in test [15], 16 µg/mL (≈ 43.5 µM).
For `C=C1C[C@@H](C(=O)Nc2ccc(F)cn2)N(C(=O)[C@H](CCCC)CN(O)C=O)C1`, the MIC was 1 µg/mL (≈ 2.55 µM) in test [20]; 2 µg/mL (≈ 5.1 µM) in test [21]; 0.125 µg/mL (≈ 0.319 µM) in test [22]; 0.5 µg/mL (≈ 1.27 µM) in test [15]; 4 µg/mL (≈ 10.2 µM) in test [1]; 0.5 µg/mL (≈ 1.27 µM) in [2]. Moreover, the MIC is 32 µg/mL (≈ 81.5 µM) in test [3]; 4 µg/mL (≈ 10.2 µM) in test [4]; 16 µg/mL (≈ 40.8 µM) in test [5]; 16 µg/mL (≈ 40.8 µM) in test [6]; 0.5 µg/mL (≈ 1.27 µM) in [7]; 0.25 µg/mL (≈ 0.637 µM) in [8]. For the same molecule, the MIC was 16 µg/mL (≈ 40.8 µM) in test [9]; 4 µg/mL (≈ 10.2 µM) in test [10]; 8 µg/mL (≈ 20.4 µM) in test [11]; over 64 µg/mL in [12]; 4 µg/mL (≈ 10.2 µM) in [13]; 4 µg/mL (≈ 10.2 µM) in test [14].
For the molecule `C=C1C[C@@H](C(=O)Nc2ccc(F)cn2)N(C(=O)[C@H](CC2CCCC2)CN(O)C=O)C1`, the MIC in test [20] worked out at 0.5 µg/mL (≈ 1.19 µM); in test [21], 1 µg/mL (≈ 2.39 µM); in test [22] it was 0.0625 µg/mL (≈ 0.149 µM); in test [15], 0.125 µg/mL (≈ 0.299 µM); in test [16], 0.5 µg/mL (≈ 1.19 µM); in [17] it was 0.25 µg/mL (≈ 0.597 µM). The MIC in test [18] amounted to 0.5 µg/mL (≈ 1.19 µM); in [19] it was 0.5 µg/mL (≈ 1.19 µM); in test [23], 0.25 µg/mL (≈ 0.597 µM); in test [24], 0.25 µg/mL (≈ 0.597 µM); in test [25] it was 2 µg/mL (≈ 4.78 µM).
